Data: ChEMBL document CHEMBL1201862, “PubChem BioAssay data set” (2004)
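These data come from cells grown in 96-well plates and exposed to compound for 48 hours at five concentrations. At the GI50, growth is halved.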 Calls of active or inactive are those of the source. Cut-off read from the data, not from the text of the source: active = GI50 up to about 1.1 µM and inactive = higher.

What was measured:
Test in all cases: NCI-60 cell line screen, 48 h
[1] = test system: SK-MEL-28
[2] = test system: OVCAR-3
[3] = test system: BT-549
[4] = test system: U-251
[5] = test system: DU-145
[6] = test system: NCI-H226
[7] = test system: A498
[8] = test system: NCI-H23
[9] = test system: SW-620
[10] = test system: SK-MEL-5
[11] = test system: SNB-19
[12] = test system: MDA-MB-435
[13] = test system: SF-539
[14] = test system: SF-268
[15] = test system: EKVX
[16] = test system: KM12
[17] = test system: HT-29
[18] = test system: SF-295
[19] = test system: MDA-MB-231
[20] = test system: SNB-75
[21] = test system: TK-10
[22] = test system: OVCAR-5
[23] = test system: UACC-62
[24] = test system: HCT-15
[25] = test system: HOP-62
[26] = test system: HL-60
[27] = test system: OVCAR-8
[28] = test system: UO-31
[29] = test system: A549
[30] = test system: RXF 393
[31] = test system: CAKI-1
[32] = test system: OVCAR-4
[33] = test system: IGROV-1
[34] = test system: Hs-578T
[35] = test system: PC-3
[36] = test system: K562
[37] = test system: M14
[38] = test system: SK-OV-3
[39] = test system: Malme-3M
[40] = test system: NCI-H522
[41] = test system: ACHN
[42] = test system: COLO 205
[43] = test system: HOP-92
[44] = test system: T47D
[45] = test system: RPMI-8226
[46] = test system: NCI/ADR-RES
[47] = test system: SK-MEL-2
[48] = test system: NCI-H460
[49] = test system: HCT-116
[50] = test system: 786-0
[51] = test system: MCF7
[52] = test system: SR
[53] = test system: MOLT-4
[54] = test system: UACC-257
[55] = test system: SN12C
[56] = test system: LOX IMVI
[57] = test system: CCRF-CEM
[58] = test system: HCC 2998
[59] = test system: MDA-N

## COc1ccc(CNc2nc(NCc3ccc(OC)cc3)nc(Nc3ccccc3)n2)cc1
[1]
  GI50: 4.72 µM (inactive)
[2]
  GI50: 2.62 µM (inactive)
[3]
  GI50: > 100 µM (inactive)
[4]
  GI50: 16.7 µM (inactive)
[5]
  GI50: 37.7 µM (inactive)
[6]
  GI50: 64.4 µM (inactive)
[7]
  GI50: 39.1 µM (inactive)
[8]
  GI50: 12.4 µM (inactive)
[9]
  GI50: 6.46 µM (inactive)
[10]
  GI50: 8.57 µM (inactive)
[11]
  GI50: 17.8 µM (inactive)
[12]
  GI50: 2.22 µM (inactive)
[13]
  GI50: 14.2 µM (inactive)
[14]
  GI50: > 100 µM (inactive)
[15]
  GI50: > 100 µM (inactive)
[16]
  GI50: 3.37 µM (inactive)
[17]
  GI50: 1.93 µM (inactive)
[18]
  GI50: 2.58 µM (inactive)
[19]
  GI50: 24.1 µM (inactive)
[20]
  GI50: 4.13 µM (inactive)
[21]
  GI50: 21.5 µM (inactive)
[22]
  GI50: > 100 µM (inactive)
[23]
  GI50: 4.14 µM (inactive)
[24]
  GI50: 3.39 µM
[25]
  GI50: > 100 µM (inactive)
[26]
  GI50: 2.44 µM (inactive)
[27]
  GI50: 20.3 µM (inactive)
[28]
  GI50: > 100 µM (inactive)
[29]
  GI50: 9.86 µM (inactive)
[30]
  GI50: > 100 µM (inactive)
[31]
  GI50: 3.35 µM (inactive)
[32]
  GI50: 8.87 µM (inactive)
[33]
  GI50: 9.71 µM (inactive)
[34]
  GI50: 30.1 µM (inactive)
[35]
  GI50: 5.69 µM (inactive)
[36]
  GI50: 5 µM (inactive)
[37]
  GI50: 45.7 µM (inactive)
[38]
  GI50: 61.5 µM (inactive)
[39]
  GI50: 6.35 µM (inactive)
[40]
  GI50: 5.73 µM (inactive)
[41]
  GI50: 13.1 µM (inactive)
[42]
  GI50: 4.82 µM (inactive)
[43]
  GI50: > 100 µM (inactive)
[44]
  GI50: > 100 µM (inactive)
[45]
  GI50: 8.34 µM (inactive)
[46]
  GI50: 9.14 µM (inactive)
[47]
  GI50: > 100 µM (inactive)
[48]
  GI50: 7.16 µM (inactive)
[49]
  GI50: 11.4 µM (inactive)
[50]
  GI50: 49.7 µM (inactive)
[51]
  GI50: 5.18 µM (inactive)
[52]
  GI50: 1.11 µM (active)
[53]
  GI50: 3.01 µM (inactive)
[54]
  GI50: 35.1 µM (inactive)
[55]
  GI50: 46 µM (inactive)

## Oc1cccc(/C=N/N=c2/[nH][nH]/c(=N/N=C/c3cccc(O)c3)c3ccccc23)c1
[1]
  GI50: 21.8 µM (inactive)
[2]
  GI50: 13.9 µM (inactive)
[3]
  GI50: 18.5 µM (inactive)
[4]
  GI50: 13.3 µM (inactive)
[56]
  GI50: 11.7 µM (inactive)
[5]
  GI50: 23.9 µM (inactive)
[6]
  GI50: 14.5 µM (inactive)
[8]
  GI50: 16.2 µM (inactive)
[9]
  GI50: 14.6 µM (inactive)
[10]
  GI50: 0.933 µM (active)
[11]
  GI50: 24.4 µM (inactive)
[12]
  GI50: 22.9 µM (inactive)
[13]
  GI50: 16.9 µM (inactive)
[14]
  GI50: 26.6 µM (inactive)
[15]
  GI50: 18.3 µM (inactive)
[16]
  GI50: 25.2 µM (inactive)
[17]
  GI50: 24.1 µM (inactive)
[18]
  GI50: 13.5 µM (inactive)
[19]
  GI50: 7.89 µM (inactive)
[20]
  GI50: 12.9 µM (inactive)
[21]
  GI50: 22.1 µM (inactive)
[22]
  GI50: 40.1 µM (inactive)
[23]
  GI50: 13.5 µM (inactive)
[24]
  GI50: 11 µM
[25]
  GI50: 12.5 µM (inactive)
[27]
  GI50: 2.72 µM (inactive)
[28]
  GI50: 15 µM (inactive)
[29]
  GI50: 21.4 µM (inactive)
[30]
  GI50: 49.2 µM (inactive)
[31]
  GI50: 29.1 µM (inactive)
[32]
  GI50: 17.4 µM (inactive)
[33]
  GI50: 11.6 µM (inactive)
[34]
  GI50: 18.7 µM (inactive)
[57]
  GI50: 3.83 µM (inactive)
[35]
  GI50: 15.8 µM (inactive)
[36]
  GI50: 18.3 µM (inactive)
[37]
  GI50: 21.7 µM (inactive)
[38]
  GI50: 29.3 µM (inactive)
[39]
  GI50: 15.5 µM (inactive)
[40]
  GI50: 17.3 µM (inactive)
[41]
  GI50: 14.3 µM (inactive)
[42]
  GI50: 30.4 µM (inactive)
[43]
  GI50: 15.9 µM (inactive)
[44]
  GI50: 15.7 µM (inactive)
[45]
  GI50: 11.5 µM (inactive)
[46]
  GI50: 22.2 µM (inactive)
[47]
  GI50: 22.6 µM (inactive)
[48]
  GI50: 21.4 µM (inactive)
[49]
  GI50: 11.5 µM (inactive)
[50]
  GI50: 13.7 µM (inactive)
[51]
  GI50: 26.7 µM (inactive)
[52]
  GI50: 2.55 µM (inactive)
[53]
  GI50: 0.426 µM (active)
[54]
  GI50: 29.9 µM (inactive)
[55]
  GI50: 11.6 µM (inactive)

## Cc1ccc(NC(=O)/C(Cc2nc3ccc([N+](=O)[O-])cc3nc2O)=N\NC(=O)C[n+]2ccccc2)c(C)c1
[1]
  GI50: 77.4 µM (inactive)
[2]
  GI50: 23.1 µM (inactive)
[3]
  GI50: > 100 µM (inactive)
[4]
  GI50: 53.6 µM (inactive)
[56]
  GI50: 59 µM (inactive)
[5]
  GI50: 32.1 µM (inactive)
[6]
  GI50: 74.6 µM (inactive)
[8]
  GI50: 65.6 µM (inactive)
[9]
  GI50: 61.1 µM (inactive)
[10]
  GI50: 16.9 µM (inactive)
[11]
  GI50: 83.4 µM (inactive)
[12]
  GI50: 97.3 µM (inactive)
[13]
  GI50: 77.1 µM (inactive)
[14]
  GI50: 67.5 µM (inactive)
[15]
  GI50: 26.7 µM (inactive)
[16]
  GI50: 74.6 µM (inactive)
[58]
  GI50: > 100 µM (inactive)
[17]
  GI50: > 100 µM (inactive)
[18]
  GI50: 58.1 µM (inactive)
[19]
  GI50: 18.4 µM (inactive)
[20]
  GI50: 97.3 µM (inactive)
[21]
  GI50: 21.2 µM (inactive)
[22]
  GI50: > 100 µM (inactive)
[23]
  GI50: 55.1 µM (inactive)
[24]
  GI50: 49.4 µM
[25]
  GI50: 38.9 µM (inactive)
[26]
  GI50: 30 µM (inactive)
[27]
  GI50: 30.3 µM (inactive)
[28]
  GI50: 18.4 µM (inactive)
[29]
  GI50: 23.3 µM (inactive)
[30]
  GI50: 4.06 µM (inactive)
[31]
  GI50: 34.7 µM (inactive)
[32]
  GI50: 23 µM (inactive)
[33]
  GI50: 35.4 µM (inactive)
[34]
  GI50: 86.1 µM (inactive)
[57]
  GI50: 26.6 µM (inactive)
[35]
  GI50: 39 µM (inactive)
[37]
  GI50: 89.1 µM (inactive)
[38]
  GI50: 22.4 µM (inactive)
[40]
  GI50: 19.4 µM (inactive)
[41]
  GI50: 20.5 µM (inactive)
[42]
  GI50: 43.5 µM (inactive)
[43]
  GI50: 37.5 µM (inactive)
[59]
  GI50: > 100 µM (inactive)
[46]
  GI50: 40.9 µM (inactive)
[47]
  GI50: 39.9 µM (inactive)
[48]
  GI50: 26.8 µM (inactive)
[49]
  GI50: 36.2 µM (inactive)
[50]
  GI50: 27.9 µM (inactive)
[51]
  GI50: 38.5 µM (inactive)
[53]
  GI50: 30.7 µM (inactive)
[54]
  GI50: 49.4 µM (inactive)
[55]
  GI50: 32.1 µM (inactive)
